# “Also recorded” adds a separate entry of the source.
# System: patients with PH associated with PF (PH-PF)
# Experiment: Acute escalating doses of pulsed iNO; hemodynamics by right heart catheterization (RHC) in PH-PF patients
# Format: in vivo, human
# Conditions: for Pulmonary arterial compliance (PAC), change from baseline: nine PH-PF patients on oxygen, median change
# Description: FIG. 1 depicts the study design for acute iNO dose escalation. Nine PH-PF subjects were administered escalating doses of pulsed iNO (iNO30 to iNO75 mcg/kg IBW/hrs) with continuous oxygen.
# FIG. 2, comprising FIGS. 2A-2C, are graphs depicting pulmonary arterial compliance, or PAC (FIG. 2A), pulmonary vascular resistance, or PVR (FIG. 2B), and mean pulmonary arterial pressure, or mPAP (FIG. 2C) for inhaled nitric oxide at 30 mcg/kg IBW/hr (iNO30), 45 mcg/kg IBW/hr (iNO45), and 75 mcg/kg IBW/hr (iNO75). The data is based on nine pulmonary hypertension—interstitial lung disease (ILD) patients. Bar graphs represent median change from baseline at each assessment for all available subjects. […] Statistical analysis was based on the Wilcoxon Rank Test.
# This study was performed to determine whether increasing doses of pulsed iNO can improve PAC in patients with PH-PF on long-term oxygen therapy with intermediate or high probability of pulmonary hypertension (PH) as determined by echocardiography. Nine patients were acutely challenged with escalating doses of iNO (iNO30, iNO45, and iNO75) over a 90 minute period. Each dose was administered for 10 minutes, with 10 minute “washout” periods between doses. Baseline measurements were taken from timepoint 0-30 minutes. iNO30 was dosed at 30 mcg/kg IBW/hrs from timepoint 30-40 minutes, iNO45 at 45 mcg/kg IBW/hrs from timepoint 50-60 minutes, and iNO75 was dosed at 75 mcg/kg IBW/hrs from timepoint 70-80 minutes (see FIG. 1). The demographics of the patient population is described in Table 1, and Baseline Hemodynamics in Table 2, below.
# PAC was derived by stroke volume divided by (SPAP-DPAP) collected during right heart catheterization (RHC). Patients were on sufficient supplemental oxygen at baseline to maintain an SpO2 of at least 92% at rest. Upon completion of the RHC, subjects were offered the opportunity to continue on to chronic iNO therapy in an extension study. 6 minute walk distance (6MWD) was assessed prior to RHC treatment in the extension study.
# [1] = all subjects, doses not separated
# [2] = iNO30 (30 mcg/kg IBW/hr, pulsed, 10 min), nine PH-PF patients, Wilcoxon Rank Test
# [3] = iNO45 (45 mcg/kg IBW/hr, pulsed, 10 min), nine PH-PF patients, Wilcoxon Rank Test
# [4] = iNO75 (75 mcg/kg IBW/hr, pulsed, 10 min), nine PH-PF patients, Wilcoxon Rank Test
compound,measurement,setting,value
"[N]=O [iNO, nitric oxide]",PAC on pulsed iNO versus average baseline,[1],increase
same,PVR on pulsed iNO versus average baseline,[1],reduction; also recorded: statistically and clinically significant improvements
same,mPAP on pulsed iNO versus average baseline,[1],statistically and clinically significant improvements; also recorded: reduction
same,PAC on pulsed iNO versus average baseline,"all subjects, doses not separated, listed as Inhaled NO",improves PAC
same,"Pulmonary arterial compliance (PAC), change from baseline","iNO30 (30 mcg/kg IBW/hr, pulsed, 10 min), Wilcoxon Rank Test",improved with significance
same,"Mean pulmonary arterial pressure (mPAP), change from baseline",[2],statistically significant improvement; also recorded: improved with significance
same,"Pulmonary vascular resistance (PVR), change from baseline",[2],statistically significant improvement; also recorded: improved with significance
same,"Pulmonary arterial compliance (PAC), change from baseline","iNO45 (45 mcg/kg IBW/hr, pulsed, 10 min), Wilcoxon Rank Test",improved with significance
same,"Mean pulmonary arterial pressure (mPAP), change from baseline",[3],statistically significant improvement; also recorded: improved with significance
same,"Pulmonary vascular resistance (PVR), change from baseline",[3],statistically significant improvement; also recorded: improved with significance
same,"Pulmonary vascular resistance (PVR), further change between iNO30 and iNO45 doses","iNO45 versus iNO30, nine PH-PF patients, Wilcoxon Rank Test",additional statistically significant improvement; also recorded: further improved with significance
same,"Pulmonary arterial compliance (PAC), change from baseline","iNO75 (75 mcg/kg IBW/hr, pulsed, 10 min), Wilcoxon Rank Test",improvement in PAC
same,"Mean pulmonary arterial pressure (mPAP), change from baseline",[4],statistically significant improvement; also recorded: improved with significance
same,"Pulmonary vascular resistance (PVR), change from baseline",[4],statistically significant improvement; also recorded: improved with significance
